In patent publication US10597388B2, “Pyridazinone herbicides” (FMC CORPORATION, priority 2014, dated 2020):

How the values were obtained:
Assay type in all cases: in vivo
[1] = test system: waterhemp_RES2 (ALS & HPPD resistant common waterhemp, Amaranthus rudis); assay: Test E greenhouse herbicide test, postemergence
Summary of the method: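 Seedlings were raised in pots of peat moss and vermiculite medium with starter nutrients until they reached the 1- to 4-leaf stage. They were then treated postemergence and held in a greenhouse for 14–21 d. Finally, response was scored visually on a 0–100 control scale.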

[2] = test system: blackgrass (Alopecurus myosuroides); assay: Test C greenhouse herbicide test, pre- and postemergence
Summary of the method: (§1)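 Two application timings: at sowing into a soil/sand blend, and on 2–18 cm seedlings in peat-vermiculite potting mix. A non-phytotoxic, surfactant-containing solvent carried the compounds. Plants were compared with controls and rated visually on 0–100 after 13–15 d.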

[3] = test system: crabgrass, large (large crabgrass, Digitaria sanguinalis); assay: as above
Summary of the method: as §1

[4] = test system: nutsedge, yellow (yellow nutsedge, Cyperus esculentus); assay: as above
Summary of the method: as §1

[5] = test system: barnyardgrass (Echinochloa crus-galli); assay: as above
Summary of the method: as §1

[6] = test system: ryegrass, Italian (Italian ryegrass, Lolium multiflorum); assay: as above
Summary of the method: as §1

[7] = test system: galium (catchweed bedstraw, Galium aparine); assay: as above
Summary of the method: as §1

soybean (Glycine max) = assay: as above
Summary of the method: as §1

corn (Zea mays) = assay: as above
Summary of the method: as §1

[8] = test system: johnsongrass (Sorghum halepense); assay: as above
Summary of the method: as §1

[9] = test system: wheat (winter wheat, Triticum aestivum); assay: as above
Summary of the method: as §1

[10] = test system: velvetleaf (Abutilon theophrasti); assay: as above
Summary of the method: as §1

[11] = test system: foxtail, giant (giant foxtail, Setaria faberii); assay: as above
Summary of the method: as §1

[12] = Postemergence, 31 g ai/ha, 0 to 100 scale (0 no effect, 100 complete control)
[13] = Postemergence, 125 g ai/ha, scale 0 to 100, 0 is no effect, 100 is complete control
[14] = Postemergence, 250 g ai/ha, scale 0 to 100, 0 no effect, 100 complete control, 13 to 15 d
[15] = Preemergence, 31 g ai/ha, scale 0 to 100, 0 is no effect, 100 is complete control
[16] = Preemergence, 62 g ai/ha, scale 0 to 100, 0 is no effect, 100 is complete control
[17] = Preemergence, 125 g ai/ha, scale 0 to 100, 0 is no effect, 100 is complete control
[18] = Preemergence, 250 g ai/ha, scale 0 to 100, 0 no effect, 100 complete control
[19] = postemergence, 62 g ai/ha, scale 0 to 100, 0 no effect, 100 complete control

CCc1sc2c(C)cc(C)cc2c1-c1c(O)c(C)nn(C)c1=O [Compound 57]
60: Plant response rating, Blackgrass [2, 16] | Plant response rating, Ryegrass, Italian [6, 14]
35: Plant response rating, Crabgrass, Large [3, 14] | Plant response rating, Crabgrass, Large [3, 16] | Corn plant response rating (corn (Zea mays); [18])
80: Blackgrass plant response rating [2, 18] | Plant response rating, Galium [7, 15] | Plant response rating, Velvetleaf [10, 16] | Plant response rating, Foxtail, Giant [11, 16]
20: Plant response rating, Waterhemp_RES2 ([1]; 31 g ai/ha, visual, scale 0 no effect to 100 complete control) | Plant response rating, Waterhemp_RES2 ([1]; 125 g ai/ha, scale 0 to 100 (0 no effect, 100 complete control)) | Crabgrass, Large plant response rating [3, 19]
0: Plant response rating, Crabgrass, Large [3, 15] | Soybean plant response rating (soybean (Glycine max); [12]) | Plant response rating, Soybean (soybean (Glycine max); [13]) | Plant response rating, Soybean (soybean (Glycine max); [15]) | Plant response rating, Soybean (soybean (Glycine max); [16]) | Plant response rating, Soybean (soybean (Glycine max); [17]) | Soybean plant response rating (soybean (Glycine max); [18]) | Soybean plant response rating (soybean (Glycine max); [19]) | Corn plant response rating (corn (Zea mays); [12]) | Plant response rating, Corn (corn (Zea mays); [15]) | Plant response rating, Corn (corn (Zea mays); [17]) | Plant response rating, Johnsongrass [8, 15] | Plant response rating, Johnsongrass [8, 16] | Plant response rating, Johnsongrass [8, 17] | Johnsongrass plant response rating [8, 18] | Wheat plant response rating [9, 12] | Plant response rating, Wheat [9, 13] | Plant response rating, Wheat [9, 15] | Plant response rating, Wheat [9, 16] | Plant response rating, Wheat [9, 17] | Wheat plant response rating [9, 19]
25: Plant response rating, Blackgrass [2, 14] | Ryegrass, Italian plant response rating [6, 12]
65: Plant response rating, Ryegrass, Italian [6, 16]
30: Plant response rating, Blackgrass [2, 15] | Plant response rating, Crabgrass, Large [3, 13] | Plant response rating, Nutsedge, Yellow [4, 16] | Ryegrass, Italian plant response rating [6, 19]
45: Plant response rating, Ryegrass, Italian [6, 15] | Plant response rating, Foxtail, Giant [11, 15]
70: Plant response rating, Blackgrass [2, 17] | Plant response rating, Ryegrass, Italian [6, 17] | Foxtail, Giant plant response rating [11, 12] | Foxtail, Giant plant response rating [11, 19]
5: Blackgrass plant response rating [2, 12] | Plant response rating, Blackgrass [2, 13] | Blackgrass plant response rating [2, 19] | Plant response rating, Barnyardgrass [5, 15] | Plant response rating, Soybean (soybean (Glycine max); [14]) | Plant response rating, Corn (corn (Zea mays); [13]) | Corn plant response rating (corn (Zea mays); [19]) | Johnsongrass plant response rating [8, 12] | Plant response rating, Johnsongrass [8, 13] | Johnsongrass plant response rating [8, 19] | Plant response rating, Wheat [9, 14] | Wheat plant response rating [9, 18]
100: Crabgrass, Large plant response rating [3, 18] | Plant response rating, Barnyardgrass [5, 17] | Barnyardgrass plant response rating [5, 18] | Plant response rating, Galium [7, 14] | Plant response rating, Velvetleaf [10, 13] | Plant response rating, Velvetleaf [10, 14] | Velvetleaf plant response rating [10, 18] | Foxtail, Giant plant response rating [11, 18]
98: Plant response rating, Crabgrass, Large [3, 17] | Plant response rating, Barnyardgrass [5, 14] | Galium plant response rating [7, 18]
95: Nutsedge, Yellow plant response rating [4, 18] | Plant response rating, Barnyardgrass [5, 13] | Barnyardgrass plant response rating [5, 19] | Galium plant response rating [7, 12] | Plant response rating, Galium [7, 13] | Plant response rating, Galium [7, 17] | Galium plant response rating [7, 19] | Plant response rating, Velvetleaf [10, 17] | Velvetleaf plant response rating [10, 19] | Plant response rating, Foxtail, Giant [11, 14]
50: Plant response rating, Waterhemp_RES2 ([1]; 250 g ai/ha, scale 0 to 100 (0 no effect, 100 complete control)) | Plant response rating, Ryegrass, Italian [6, 13] | Plant response rating, Velvetleaf [10, 15]
90: Nutsedge, Yellow plant response rating [4, 12] | Plant response rating, Nutsedge, Yellow [4, 13] | Plant response rating, Nutsedge, Yellow [4, 14] | Plant response rating, Nutsedge, Yellow [4, 17] | Nutsedge, Yellow plant response rating [4, 19] | Barnyardgrass plant response rating [5, 12] | Plant response rating, Barnyardgrass [5, 16] | Plant response rating, Galium [7, 16] | Velvetleaf plant response rating [10, 12] | Plant response rating, Foxtail, Giant [11, 17]
10: Plant response rating, Waterhemp_RES2 ([1]; 62 g ai/ha, scale 0 to 100 (0 no effect, 100 complete control)) | Crabgrass, Large plant response rating [3, 12] | Plant response rating, Nutsedge, Yellow [4, 15] | Plant response rating, Corn (corn (Zea mays); [14]) | Plant response rating, Johnsongrass [8, 14]
85: Ryegrass, Italian plant response rating [6, 18] | Plant response rating, Foxtail, Giant [11, 13]
